What is called IC50 is the concentration that gives 50% inhibition.

The results in this text go back to US10604526B2, “Chemokine receptor modulators and uses thereof” (RAPT THERAPEUTICS, INC., priority 2016, dated 2020).

The target in this experiment is T1, hCCR4 (Homo sapiens, UniProt P51679).
T1 sequence (P51679 1-360): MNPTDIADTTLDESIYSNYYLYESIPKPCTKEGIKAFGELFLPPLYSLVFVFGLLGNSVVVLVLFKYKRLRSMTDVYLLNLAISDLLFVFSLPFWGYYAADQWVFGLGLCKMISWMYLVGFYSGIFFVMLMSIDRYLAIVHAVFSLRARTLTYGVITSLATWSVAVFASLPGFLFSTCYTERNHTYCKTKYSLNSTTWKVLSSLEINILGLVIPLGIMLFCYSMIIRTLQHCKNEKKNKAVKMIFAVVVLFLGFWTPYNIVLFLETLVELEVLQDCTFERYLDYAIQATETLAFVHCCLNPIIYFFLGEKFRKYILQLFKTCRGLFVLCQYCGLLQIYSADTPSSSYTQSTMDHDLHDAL
The experiment in a line: Calcium flux assay. Conditions: Chem5-hCCR4 cells, CCL22 at EC80 of 1.5 nM, FLIPR Calcium 6 dye; read-out: Potency (IC50). It is filed as cell-based. An outline of the steps:
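Chem5 cells expressing hCCR4 were serum-starved for 2 h, loaded with Calcium 6 dye plus 2.5 mM probenecid, then given compound for 1 h at 37 °C (0.5% DMSO). CCL22 was added from a 7.5 nM working solution (5× EC80 of 1.5 nM). IC50 came from ΔF/Fmin (485/525 nm) by 4-parameter fit.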
For the compound `CC(C)S(=O)(=O)NCCN1CCC[C@H](C2CN(c3cnc4c(C(F)(F)F)nn([C@H](C)c5ccc(Cl)cc5Cl)c4n3)C2)C1` (single isomer, unassigned) [Example 109], the IC50 was < 100 nM.
Turning to `CC(C)S(=O)(=O)NCCN1CCC[C@@H](C2CN(c3cnc4c(C(F)(F)F)nn([C@H](C)c5ccc(Cl)cc5Cl)c4n3)C2)C1` (single isomer, unassigned) [Example 110], the IC50 lay in the range of 100 to 500 nM.
For the compound `C[C@H](c1ccc(Cl)cc1Cl)n1nc(C#N)c2ncc(N3CC([C@@H]4CCCN(Cc5cnc[nH]5)C4)C3)nc21` (single isomer, unassigned) [Example 111], the IC50 lay in the range of 100 to 500 nM.
Then `C[C@H](c1ccc(Cl)cc1Cl)n1nc(C#N)c2ncc(N3CC([C@H]4CCCN(Cc5cnc[nH]5)C4)C3)nc21` (single isomer, unassigned) [Example 112], with < 100 nM; and `Cc1nn([C@H](C)c2ccc(Cl)cc2Cl)c2nc(N3CC([C@@H]4CCCN(CCCS(C)(=O)=O)C4)C3)cnc12` (single isomer, unassigned) [Example 113], with 100 to 500 nM; and `Cc1nn([C@H](C)c2ccc(Cl)cc2Cl)c2nc(N3CC([C@H]4CCCN(CCCS(C)(=O)=O)C4)C3)cnc12` (single isomer, unassigned) [Example 114], with < 100 nM.
On to `C[C@H](c1ccc(Cl)cc1Cl)n1nc(C(F)(F)F)c2ncc(N3CC([C@@H]4CCCN(CCCS(C)(=O)=O)C4)C3)nc21` (single isomer, unassigned) [Example 115], for which the IC50 fell in the range of 100 to 500 nM.
Then `C[C@H](c1ccc(Cl)cc1Cl)n1nc(C(F)(F)F)c2ncc(N3CC([C@H]4CCCN(CCCS(C)(=O)=O)C4)C3)nc21` (single isomer, unassigned) [Example 116], with < 100 nM; and `C[C@H](c1ccc(Cl)cc1F)n1nc(C#N)c2ncc(N3CC([C@H]4CCCN(CCO)C4)C3)nc21` [Example 55, 1-((R)-1-(4-chloro-2-fluorophenyl)ethyl)-6-(3-((R)-1-(2-hydroxyethyl)piperidin-3-yl)azetidin-1-yl)-1H-pyrazolo[3,4-b]pyrazine-3-carbonitrile], with < 100 nM; and `CC(C)N1CCC[C@H](C2CN(c3cnc4c(C(F)(F)F)nn([C@H](C)c5ccc(Cl)cc5Cl)c4n3)C2)C1` [Example 102, 1-((R)-1-(2,4-dichlorophenyl)ethyl)-6-(3-((R)-1-isopropylpiperidin-3-yl)azetidin-1-yl)-3-(trifluoromethyl)-1H-pyrazolo[3,4-b]pyrazine], with 100 to 500 nM.
Then `C[C@H](c1ccc(Cl)cc1Cl)n1nc(C(F)(F)F)c2ncc(N3CC([C@H]4CCCN(C[C@@H](C)O)C4)C3)nc21` [Example 103, (R)-1-((R)-3-(1-(1-((R)-1-(2,4-dichlorophenyl)ethyl)-3-(trifluoromethyl)-1H-pyrazolo[3,4-b]pyrazin-6-yl)azetidin-3-yl)piperidin-1-yl)propan-2-ol], with < 100 nM.
Then `C[C@H](O)CN1CCC[C@H](C2CN(c3cnc4c(C(F)(F)F)nn([C@H](C)c5ccc(Cl)cc5Cl)c4n3)C2)C1` [Example 104, (S)-1-((R)-3-(1-(1-((R)-1-(2,4-dichlorophenyl)ethyl)-3-(trifluoromethyl)-1H-pyrazolo[3,4-b]pyrazin-6-yl)azetidin-3-yl)piperidin-1-yl)propan-2-ol], with < 100 nM; and `CC(=O)N[C@H](C)CN1CCC[C@H](C2CN(c3cnc4c(C(F)(F)F)nn([C@H](C)c5ccc(Cl)cc5Cl)c4n3)C2)C1` [Example 105, N—((R)-1-((R)-3-(1-(1-((R)-1-(2,4-dichlorophenyl)ethyl)-3-(trifluoromethyl)-1H-pyrazolo[3,4-b]pyrazin-6-yl)azetidin-3-yl)piperidin-1-yl)propan-2-yl)acetamide], with < 100 nM; and `CC(=O)N[C@@H](C)CN1CCC[C@H](C2CN(c3cnc4c(C(F)(F)F)nn([C@H](C)c5ccc(Cl)cc5Cl)c4n3)C2)C1` [Example 106, N—((S)-1-((R)-3-(1-(1-((R)-1-(2,4-dichlorophenyl)ethyl)-3-(trifluoromethyl)-1H-pyrazolo[3,4-b]pyrazin-6-yl)azetidin-3-yl)piperidin-1-yl)propan-2-yl)acetamide], with < 100 nM.
As to “N-(2-((R)-3-(1-(1-((R)-1-(2,4-dichlorophenyl)ethyl)-3-(trifluoromethyl)-1H-pyrazolo[3,4-b]pyrazin-6-yl)azetidin-3-yl)piperidin-1-yl)ethyl)propane-2-sulfonamide and N-(2-((S)-3-(1-(1-((R)-1-(2,4-dichlorophenyl)ethyl)-3-(trifluoromethyl)-1H-pyrazolo[3,4-b]pyrazin-6-yl)azetidin-3-yl)piperidin-1-yl)ethyl)propane-2-sulfonamide [Example 66]”, the IC50 was < 100 nM.
